Data taken from paper PMC8192908 (Scientific Reports, 2021).
“And” between values parts separate entries of the source, which are not always exact repeats. Identical values can stand only once.

How the values were obtained:
mouse bone marrow cells = details: cited from earlier work
human lymphocytes cells = details: cited from earlier work
PDE10A = target: T1, PDE10A (Homo sapiens, UniProt Q9Y233); assay: ITC binding of PTX to the catalytic domain of PDE10A
T1 construct: Catalytic domain of each protein was cloned between BamHI and XhoI restriction sites in; 6xHis-SUMO (N, cleaved yes); made in house; host or cells: E. coli Rosetta 2 (DE3)
T1 sequence (Q9Y233 718-1035 limits assumed): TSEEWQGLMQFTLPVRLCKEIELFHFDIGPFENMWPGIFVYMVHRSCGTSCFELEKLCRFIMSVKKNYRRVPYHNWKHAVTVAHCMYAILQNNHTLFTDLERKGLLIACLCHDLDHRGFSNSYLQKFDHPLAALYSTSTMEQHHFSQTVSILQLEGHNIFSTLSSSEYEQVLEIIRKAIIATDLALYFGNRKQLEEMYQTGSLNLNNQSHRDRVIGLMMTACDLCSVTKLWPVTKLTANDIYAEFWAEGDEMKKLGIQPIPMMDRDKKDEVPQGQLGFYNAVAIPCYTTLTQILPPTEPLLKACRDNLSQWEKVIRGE
Description: Supplementary Materials and Methods
Cloning, expression and purification of catalytic domains of PDE4A, […]
The full length human PDE4A (1005 bp), PDE4D (981 bp) and PDE10A (957 bp) cDNAs, cloned in pET28a(+) expression vector, were purchased from Biomatik, Canada.
Catalytic domain of each protein was cloned between BamHI and XhoI restriction sites in 6x-His-SUMO-tagged bacterial expression vector. The catalytic domain constructs of PDE4A, PDE4D and PDE10A were transformed in E. coli Rosetta 2 (DE3) competent cells for expression. After growing the transformed cells at 37 °C, till the OD 600nm reached 0.5-0.7, the culture containing constructs of PDE4A and PDE4D were induced with 0.1 mM IPTG and the cultures were incubated at 15 °C for 16-18 h, whereas those with PDE10A constructs were induced with 0.5 mM at incubated for 35 -40 h followed by cell harvesting. Harvested cells were suspended in lysis buffer (500 mM NaCl, 50 mM Tris - Cl pH 8.0, 10 mM Imidazole, 3 mM β-mercaptoethanol) and lysed by sonication (Qsonica). The lysates were cleared by centrifugation at 20,000g for 1h and supernatant was passed through Ni-NTA affinity column (His-Trap, GE Healthcare). Eluted proteins were subjected to salt exchange with a buffer containing 100 mM NaCl, 50 mM Tris-Cl pH 8.0, 3 mM β-mercaptoethanol. The collected proteins were further purified using ion - exchange chromatography (Q column, Hi-Trap, GE Healthcare) followed by overnight treatment with ULP1 at 4 °C to cleave 6xHis-SUMO tag. The tag was separated from proteins by a subsequent Ni-NTA purification. The proteins were further purified on size exclusion 16/600 200 pg column (GE Healthcare) pre-equilibrated with a buffer (100 mM […]
NaCl, 50 mM Tris pH 8.0, 5% Glycerol, 3 mM β-mercaptoethanol). After purifying with a gel filtration column, purity was determined on 12% SDS -PAGE and all three proteins were more than 95% pure (Supplementary Figure S10). Purified proteins were concentrated to 20mg/ml, flash cooled with liquid nitrogen and stored at -80°C.
Isothermal titration calorimetry (ITC) binding studies
The equilibrium molar dissociation constant (Kd), stoichiometry (N) and […]
of PDE4A, PDE4D and PDE10A were determined at 25°C, using Affinity ITC (TA instruments). Protein and ligand solutions for titration were prepared in the same buffer.
The reference cell was filled with a distilled water and the sample cell was filled with 350 […]
μL of either PDE4A or PDE4D or PDE10A (75-500 µM). […]
sequentially injected in 2 μL per injection (for a total 20 injections), at a regular interval of 120-150s, while stirring at 125 rpm. The ITC generated data were processed using NanoAnalyze software (TA Instruments). The ITC data was deconvoluted with the “independent” curve fitting model using a nonlinear least-squares algorithm. […]

SMILES	genotoxic effect on mouse bone marrow cells in vivo (mouse bone marrow cells)	genotoxic effect on human lymphocytes cells in vitro (human lymphocytes cells)	change in enthalpy (ΔH) (PDE10A)	change in entropy (ΔS) (PDE10A)	stoichiometry (N) (PDE10A)	Kd (PDE10A; 25°C, read-out: molar dissociation constant (Kd))
COc1ccc2cc(/C=C/C(=O)CCCCn3c(=O)c4c(ncn4C)n(C)c3=O)ccc2c1 [PTXm-1]	significantly lower genotoxic effect	significantly lower genotoxic effect				
CC(=O)CCCCn1c(=O)c2c(ncn2C)n(C)c1=O [PTX, pentoxifylline]			~ -8.25±0.04 kcal/mol	~ -7.8 cal/mol.K	~ 1.03±0.04	44 µM and ~44 µM
